Columns and labels:
[1] = system: female adenocarcinoma patients; settings: double-blind, placebo-controlled trial, Japan
[2] = system: chemotherapy-induced toxicities; settings: human, in vivo
[3] = system: NSCLC adenocarcinoma patients

## disodium 2′-dithio-bis-ethane
[1]
  survival result in female adenocarcinoma patients: Consistent statistically significant results
[2]
  anemia: reduced anemia
  chemotherapy-induced kidney toxicity: protection against chemotherapy-induced kidney toxicity
  neuropathy and other chemotherapy-induced toxicities: protect against neuropathy & other chemotherapy-induced toxicities
[3]; all genders and smoking status groups
  survival in all genders and smoking status groups: marginally increased survival
[3]; background statement
  clinical efficacy endpoints and subgroup responses: did not meet clinical efficacy endpoints
[3]; female non-smokers, increase from 13 months
  survival in female non-smokers: 25 months
[3]; females non-smokers
  percentage of patients undergoing treatment failure (FIG. 3): the least
[3]; females with advanced adenocarcinoma of the lung receiving paclitaxel/cisplatin
  2-year survival: 51.4%
[3]; females with advanced adenocarcinoma of the lung receiving paclitaxel/cisplatin, subgroup of 114 female patients, retrospective analysis
  overall survival: 25.0 months
[3]; females, non-smokers and female non-smokers receiving Cisplatin/Paclitaxel
  overall survival benefit (FIG. 1): remarkable survival benefit
[3]; non-smokers
  percentage of patients undergoing treatment failure (FIG. 2): the least
[3]; subgroup of 114 female patients, retrospective analysis, p-value=0.0477
  HR (overall survival): 0.579
